Series [1] deals with Staphylococcus aureus 3055. The series can be described thus: Standard agar-dilution test. The class given is cell-based.
Series [2] deals with Group D Streptococcus 282. Kind of series: Standard agar-dilution test. The class given is cell-based.
The test system of series [3] is Streptococcus pyogenes C203. Kind of series: Standard agar-dilution test. The class given is cell-based.
Series [4] concerns Streptococcus pneumoniae Park I. Kind of series: Standard agar-dilution test. The class given is cell-based.
The test system of series [5] is Viridans Streptococcus 9943. Kind of series: Standard agar-dilution test. The class given is cell-based.
The test system of series [6] is Neisseria gonorrhoeae 111076-4. The series can be described thus: Standard agar-dilution test. The class given is cell-based.
In series [7] the test system is Staphylococcus aureus 3055. The series can be described thus: Standard broth-dilution test. In kind it is cell-based.
Series [8] concerns Group D Streptococcus 282. Kind of series: Standard broth-dilution test. The class given is cell-based.
The test system of series [9] is Streptococcus pyogenes C203. The series can be described thus: Standard broth-dilution test. The class given is cell-based.
Series [10] concerns Streptococcus pneumoniae Park I. Kind of series: Standard broth-dilution test. The class given is cell-based.
Series [11] has as its system Viridans Streptococcus 9943. The series can be described thus: Standard broth-dilution test. The class given is cell-based.
The test system of series [12] is Staphylococcus aureus. Kind of series: ICS agar-dilution, clinical isolates. The following applies: Staphylococcus aureus (10 isolates), MIC or MIC range of isolates. The class given is cell-based.
The subject of series [13] is Staphylococcus epidermidis. Kind of series: ICS agar-dilution, clinical isolates. In kind it is cell-based. The conditions noted are these: Staphylococcus epidermidis (12 isolates).
A further series deals with Actinomyces israelii. Kind of series: Standard agar-dilution test, anaerobic bacteria. The conditions noted are these: anaerobe. The class given is cell-based.
The subject of the next series is Clostridium perfringens. In kind it is cell-based. The following applies: anaerobe.
Another series has as its system Clostridium septicum. Kind of series: Standard agar-dilution test, anaerobic bacteria. In kind it is cell-based. The following applies: anaerobe.
For another series, the system named is Eubacterium aerofaciens. Kind of series: Standard agar-dilution test, anaerobic bacteria. In kind it is cell-based. The conditions noted are these: anaerobe.
Series [14] has as its system Peptococcus asaccharolyticus. Kind of series: Standard agar-dilution test, anaerobic bacteria. In kind it is cell-based. The following applies: anaerobe.
The next series deals with Peptococcus prevoti. Kind of series: Standard agar-dilution test, anaerobic bacteria. The class given is cell-based. The following applies: anaerobe.
Series [15] has as its system Peptostreptococcus anaerobius. Kind of series: Standard agar-dilution test, anaerobic bacteria. The following applies: anaerobe. In kind it is cell-based.
Series [16] concerns Peptostreptococcus intermedius. The series can be described thus: Standard agar-dilution test, anaerobic bacteria. In kind it is cell-based. The following applies: anaerobe.
For another series, the system named is Propionibacterium acnes. Kind of series: Standard agar-dilution test, anaerobic bacteria. The following applies: anaerobe. The class given is cell-based.
In another series the test system is Bacteroides fragilis. Kind of series: Standard agar-dilution test, anaerobic bacteria. The conditions noted are these: anaerobe. In kind it is cell-based.
The next series concerns Fusobacterium symbiosum. The series can be described thus: Standard agar-dilution test, anaerobic bacteria. In kind it is cell-based. The conditions noted are these: anaerobe.
In series [17] the test system is Fusobacterium necrophorum. Kind of series: Standard agar-dilution test, anaerobic bacteria. The class given is cell-based. The following applies: anaerobe.
In series [18] the test system is Staphylococcus aureus. Kind of series: Agar dilution MIC (Table XV). The class given is cell-based. The text has this:
(§1) ^1 MIC = minimum inhibitory concentration (μg/ml), agar dilution
On the technique in general: Agar dilution tests growth on a series of plates holding different concentrations.

For series [19], the system named is Streptococcus pneumoniae. The series can be described thus: Agar dilution MIC (Table XV). The class given is cell-based.
Description: as §1

Series [20] deals with Streptococcus pyogenes. Kind of series: Agar dilution MIC (Table XV). The class given is cell-based.
Description: as §1

Series [21] relates to Staphylococcus aureus. Kind of series: Experimental bacterial infection in mice. In kind it is in vivo. The conditions noted are these: subcutaneous administration, two doses. The procedure: (§2) When two doses of test compound were administered to mice in illustrative infections, the activity observed as measured as an ED50 value [effective dose in mg/kg to protect fifty percent of the test animals: See Warren Wick, et al., J. Bacteriol. 81, 233-235 (1961)].

The test system of series [22] is Streptococcus pneumoniae. Kind of series: Experimental bacterial infection in mice. The class given is in vivo. The following applies: subcutaneous administration, two doses. The method, then: as §2
Series [23] deals with Streptococcus pyogenes. The series can be described thus: Experimental bacterial infection in mice. In kind it is in vivo. The conditions noted are these: two doses. The procedure:
as §2

Series [24] concerns Streptococcus faecalis (Guze). The series can be described thus: In vitro susceptibility of the S. faecalis Guze strain. In kind it is cell-based. The text has this:
^1 In vitro susceptibility of the S. faecalis Guze strain

The conditions of series [25]: Mouse.
The conditions of series [26]: Rat, IV.
In a further series the test system is Micrococcus luteus. Kind of series: Paper-disc agar-diffusion bioassay. The following applies: Na salts. (In general: A growth-free zone around the sample is the usual read-out of agar diffusion tests.)
Series [27] has as its system Streptococcus faecalis (Guze). Kind of series: Streptococcus faecalis descending rat pyelonephritis test. The conditions noted are these: rat dose 1.0 mg/kg × 7, subcutaneous.

Values after ≈ are worked out from the molar mass of the structure shown. Read-outs that look alike come from different tables or passages of the source.

Regarding `CCC(C)CCCCCCC(=O)NC(Cc1c[nH]c2ccccc12)C(=O)NC(CC(N)=O)C(=O)NC(CC(=O)O)C(=O)NC1C(=O)NCC(=O)NC(CCCN)C(=O)NC(CC(=O)O)C(=O)NC(C)C(=O)NC(CC(=O)O)C(=O)NCC(=O)NC(CO)C(=O)NC(C(C)CC(=O)O)C(=O)NC(CC(=O)c2ccccc2N)C(=O)OC1C` (stereo not shown) [Factor C1], the MIC (commonly the least concentration at which growth counts as inhibited) in series [1] came to 0.5 µg/mL (≈ 0.306 µM); in series [2], 1.0 µg/mL (≈ 0.612 µM); in series [3] it was 0.13 µg/mL (≈ 0.0795 µM); in series [4] it was 0.13 µg/mL (≈ 0.0795 µM); in series [5], 0.5 µg/mL (≈ 0.306 µM); in series [6], 16.0 µg/mL (≈ 9.79 µM). Further, the minimal inhibitory concentration (MIC) in [7] stood at 1.0 µg/mL (≈ 0.612 µM); in [8], 2.0 µg/mL (≈ 1.22 µM); in series [9], 0.5 µg/mL (≈ 0.306 µM); in [10], 2.0 µg/mL (≈ 1.22 µM); in [11], 32.0 µg/mL (≈ 19.6 µM); against Actinomyces israelii it was 4 µg/mL (≈ 2.45 µM). Also, the MIC worked out at 16 µg/mL (≈ 9.79 µM) in the series on Clostridium perfringens; 4 µg/mL (≈ 2.45 µM) with Clostridium septicum; 16 µg/mL (≈ 9.79 µM) in the series with Eubacterium aerofaciens; 4 µg/mL (≈ 2.45 µM) in series [14]; 2 µg/mL (≈ 1.22 µM) against Peptococcus prevoti; 2 µg/mL (≈ 1.22 µM) in series [15]. Moreover, the minimum inhibitory concentration (MIC) was 4 µg/mL (≈ 2.45 µM) in series [16]; 8 µg/mL (≈ 4.89 µM) with Propionibacterium acnes; greater than 128 µg/mL with Bacteroides fragilis; greater than 128 µg/mL in the series with Fusobacterium symbiosum; 64 µg/mL (≈ 39.2 µM) in series [17]; 0.5 µg/mL (≈ 0.306 µM) against Staphylococcus aureus [18]. Further, the minimal inhibitory concentration (MIC) stood at 0.13 µg/mL (≈ 0.0795 µM) against Streptococcus pneumoniae [19], 0.13 µg/mL (≈ 0.0795 µM) in the series with Streptococcus pyogenes [20] and 1.0 µg/mL (≈ 0.612 µM) in series [24]. Further, the “Minimum Inhibitory Concentration” value in the series with Staphylococcus aureus [12] was 0.5 µg/mL; in [13] it was 0.13 to 0.25 µg/mL. The ED50 (usually the midpoint of the dose-response relation) with Staphylococcus aureus [21] was determined as 0.22 mg/kg; in the series on Streptococcus pneumoniae [22], 0.3 mg/kg; in the series with Streptococcus pyogenes [23] (oral administration), 93 mg/kg; in the series with Streptococcus pyogenes [23] (subcutaneous administration) it was 0.064 mg/kg. Further, the median lethal dose (LD50) (in general, the dose at which mortality reaches 50%) in series [25] (IV) was greater than 250 mg/kg; in [25] (SC) it was greater than 365 mg/kg; in series [26], 479 ± 32 mg/kg. For the same molecule, the “Bioassay (Micrococcus luteus)” value in the series on Micrococcus luteus came to 1663 units/mg. The “Percent of Rats with a 4-Log Titer Decrease” value in series [27] came to 50. Moreover, the “Percent of Rats Cured” value in [27] (kidney counts less than 10^2 per g) was determined as 50.

Take `CN[C@H](CC(C)C)C(=O)N[C@H]1C(=O)N[C@@H](CC(N)=O)C(=O)N[C@H]2C(=O)N[C@H]3C(=O)N[C@H](C(=O)N[C@H](C(=O)O)c4cc(O)cc(O)c4-c4cc3ccc4O)[C@H](O)c3ccc(c(Cl)c3)Oc3cc2cc(c3O[C@@H]2O[C@H](CO)[C@@H](O)[C@H](O)[C@H]2O[C@H]2C[C@](C)(N)[C@H](O)[C@H](C)O2)Oc2ccc(cc2Cl)[C@H]1O` [Vancomycin, reference compound]: the MIC in series [24] (Enterococcus faecalis, read-out: MIC) is 1 µg/mL (≈ 0.69 µM).

These data come from USRE31396E, “A-21978 Antibiotics and process for their production” (priority 1982, dated 1983).
